Results as given in article PMC5607274, “An iterative compound screening contest method for identifying target protein inhibitors using the tyrosine-protein kinase Yes” (Scientific Reports, 2017).

Target: T1, human recombinant Yes [a.a. 2–543 (end)] (Homo sapiens, UniProt P07947)
T1 construct: human recombinant Yes [a.a; 2–543 (end)]; purchased BPS Bioscience 40488
Assay: ADP-Glo kinase assay, inhibition rates of Yes phosphorylation activity (first and second screening)
Type: biochemical
Conditions: 10 μmol L−1 compound; for First screening IR (inhibition rate): mean of n = 4 wells; for Second screening IR (inhibition rate): dissolved from fresh powder, n = 4
Method: All inhibitory assays of the phosphorylation activity of Yes were performed in accordance with the Promega Technical Manual for the ADP-Glo™ Kinase Assay (Fitchburg, WI, USA. Catalog number: V9102). The human recombinant Yes [a.a. 2–543 (end)] was purchased from BPS Bioscience (catalog number: 40488). The details of the assay protocol and reagent information are given elsewhere.
The screening was conducted in three steps consisting of the first screening, the second screening, and the IC50 determination, as can be illustrated in Fig. 1b. First, we determined the inhibition rates of the 1,991 compounds. Each compound was placed in 4 wells of a 384-well plate. In total, 80 compounds were assayed on one plate and the other wells were used for positive and negative controls. The compounds were randomly placed on plates so that compounds proposed by one group were not placed on a plate together. A mean of four inhibition rates for each compound was compared to criteria for the first screening. […] Second, the inhibition rates of the screened compounds were determined on one plate using the same procedure of the first screening, where compounds were dissolved from fresh powder. […] Screened compounds were then evaluated for their IC50 values.

T1 sequence (P07947 2-543): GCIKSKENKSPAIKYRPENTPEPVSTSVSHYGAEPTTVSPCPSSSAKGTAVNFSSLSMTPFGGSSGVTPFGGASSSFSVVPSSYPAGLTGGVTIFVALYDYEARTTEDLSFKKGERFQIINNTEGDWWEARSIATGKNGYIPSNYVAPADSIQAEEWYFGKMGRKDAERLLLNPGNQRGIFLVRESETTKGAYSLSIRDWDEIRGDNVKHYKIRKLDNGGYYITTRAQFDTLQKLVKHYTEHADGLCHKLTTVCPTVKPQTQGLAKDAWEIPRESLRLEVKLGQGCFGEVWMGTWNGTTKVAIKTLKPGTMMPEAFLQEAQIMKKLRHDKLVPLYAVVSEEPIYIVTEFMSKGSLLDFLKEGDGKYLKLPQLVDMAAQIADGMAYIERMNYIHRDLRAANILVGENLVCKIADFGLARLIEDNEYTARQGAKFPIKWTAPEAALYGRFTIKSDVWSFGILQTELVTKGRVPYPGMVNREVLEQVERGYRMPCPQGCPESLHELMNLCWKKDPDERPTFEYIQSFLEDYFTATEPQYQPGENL

| SMILES | First screening IR (inhibition rate) | Second screening IR (inhibition rate) |
| --- | --- | --- |
| O=C1CCc2cc(C(=O)Nc3nnc(SCc4c(Cl)cccc4Cl)s3)ccc2N1 [Compound Z164941068] | -3% |  |
| CC(C)(C)c1ncc(C(=O)Nc2ccc(F)c(NC(=O)C3CC3)c2)s1 [Compound Z825945954] | -24% |  |
| N#CCCN(CCN1CCOCC1)Cc1cn[nH]c1-c1c(F)cccc1F [Compound Z1470747510] | -6% |  |
| Cc1nn(CCC(=O)O)c2nc(-c3cccs3)cc(C(=O)O)c12 [Compound Z295455358] | -2% |  |
| Nc1c2c(nc3sc4c(c13)CCCC4)-c1ccccc1CC2 [Compound Z56772171] | -17% |  |
| Cc1sc2nc(CN3CCC(C)CC3)nc(N3CCCN(C(=O)Cc4ccccn4)CC3)c2c1C [Compound Z915925636] | 0% |  |
| Cc1cc(C(=O)CSCc2nc(N)nc(N(C)C)n2)c(C)n1C1CC1 [Compound Z197454120] | 4% |  |
| O=C(N/N=C/c1ccco1)c1cc(-c2ccc(Br)s2)[nH]n1 [Compound Z57393573] | -9% |  |
| CN(C)C(=O)c1ccc(Cl)c(NC(=O)N2CCc3ccccc3C2)c1 [Compound Z413336660] | 5% |  |
| CCN(CC)Cc1ccccc1CNC(=O)c1c(C)nn(-c2ccc(F)cc2)c1C [Compound Z117807680] | 9% |  |
| Cc1sc2nc(CN3CCC(C)CC3)n(CC(=O)Nc3ccc(N4CCCC4)cc3)c(=O)c2c1C [Compound Z112958446] | -4% |  |
| O=C(/C=C/c1ccc(Br)o1)Nc1ccc(S(=O)(=O)C2CCCC2)cc1 [Compound Z364474850] | 0% |  |
| NCC1CCCS1(=O)=O (centres unmarked) [Compound Z1203586543] | 6% |  |
| Cc1ccc(Cn2c(=O)/c(=C/c3ccc(N4CCOCC4)c([N+](=O)[O-])c3)s/c2=C/C(=O)C(C)(C)C)cc1 [Compound Z48770507] | 31% |  |
| Cc1cccc(CS(=O)(=O)CCS(C)(=O)=O)c1 [Compound Z822335078] | -2% |  |
| COc1ccc(S(=O)(=O)N(C)C2CCS(=O)(=O)C2)cc1 (centres unmarked) [Compound Z89320750] | 2% |  |
| C=CCN1C(=O)c2ccc(C(=O)Nc3cc(C)cc(C)c3)cc2C1=O [Compound Z30888972] | 20% |  |
| CCc1ccc(-n2c(-c3ccccc3)cn3c4c(=O)n(CCN5CCOCC5)c(=O)n(C)c4nc23)cc1 [Compound Z237376112] | 39% | 20% |
| O=C(CN1CCN(Cc2nc3scc(-c4ccc(F)cc4)c3c(=O)[nH]2)CC1)N1CCCCCC1 [Compound Z126042696] | 22% |  |

| SMILES | First screening IR (inhibition rate) | Second screening IR (inhibition rate) |
| --- | --- | --- |
| CC(C)CCn1c(CN2CCN(Cc3ccco3)CC2)nc2c1c(=O)[nH]c(=O)n2Cc1ccccc1 [Compound Z195914778] | -3% |  |
| CC(C)(C)c1nccc(Nc2cn[nH]c2)n1 [Compound Z1317605702] | 42% | 7% |
| Cc1ccnc(Nc2nc3ccccc3s2)n1 [Compound Z57289339] | -13% |  |
| Cc1c(C(=O)N2CCN(C(=O)C3CCS(=O)(=O)C3)CC2)[nH]c2c1C(=O)CC(C)(C)C2 (centres unmarked) [Compound Z164965524] | 25% |  |
| Cc1ccc(-n2c(=O)/c(=C/c3ccc4c(c3)OCO4)s/c2=C(/C#N)C(=O)NCCN2CCOCC2)c(C)c1 [Compound Z47840324] | -11% |  |
| CN(C1CCCCC1)S(=O)(=O)N1CCS(=O)(=O)CC1 [Compound Z1082836720] | -4% |  |
| O=C(Nc1cccc(C(F)(F)F)c1)c1cccc(NC(=O)c2cnccn2)c1 [Compound Z30576843] | 14% |  |
| NC(=O)c1ccc(CN(C2CC2)S(=O)(=O)c2cccc(Cl)c2)cc1 [Compound Z319895028] | -5% |  |
| CC(C)(C)n1nc(C(=O)Nc2cccc(C3SCCCS3)c2)cc1C1CC1 [Compound Z735448522] | 2% |  |
| O=C(COc1cccnc1[N+](=O)[O-])Nc1ccc2c(c1)OCCO2 [Compound Z24778709] | 9% |  |
| Cc1cc(/C=C/C(=O)N2CCOCC2)c(C)n1-c1ccnn1C(C)C [Compound Z79434439] | 15% |  |
| CN(CC(=O)N1CCN(CC(=O)NC(C)(C)C)CC1)c1ncnc2cc(-c3ccc(F)cc3)sc12 [Compound Z64655268] | 6% |  |
| Cc1cc(NC(=O)c2cc(-c3cccs3)on2)n(CCC#N)n1 [Compound Z908095506] | -3% |  |
| O=S1(=O)CCC(CNS(=O)(=O)c2c[nH]c3nccc(Cl)c23)C1 (centres unmarked) [Compound Z1547285504] | -14% |  |
| CN(C)S(=O)(=O)CCCS(=O)(=O)N(C)C1CCC1 [Compound Z1720728610] | -6% |  |
| CSc1ccc(C(C)N2CCCC(C(=O)N3CCOCC3)C2)cc1F (centres unmarked) [Compound Z1742902065] | 26% |  |
| CC(Sc1nc2ncccn2n1)C(=O)Nc1ccc(Cl)cc1Cl (centres unmarked) [Compound Z207321514] | 5% |  |
| CC1=Nc2nc(N3CCCCC3)c(C#N)c3c4c(nc(c23)N1)N(c1ccc(C)cc1)C(=O)C4 [Compound Z55516559] | -13% |  |
| CC(C)S(=O)(=O)CCS(=O)(=O)CC1CCCCC1 [Compound Z1347351162] | -3% |  |

Results, then the molecule that gave them:

| First screening IR (inhibition rate) | Second screening IR (inhibition rate) | SMILES |
| --- | --- | --- |
| 12% |  | O=C(NCc1ccc(-c2nc3ccccc3s2)o1)c1ccco1 [Compound Z218238558] |
| 0% |  | C(=C1\CCCc2c1nc1ncnn1c2-c1ccccc1)/c1ccccc1 [Compound Z56784273] |
| 9% |  | COc1ccc(OC)c(C2CCCN2C(=O)CSc2nnc(Nc3ccccc3C)s2)c1 (centres unmarked) [Compound Z96342510] |
| -3% |  | Cc1ccccc1-n1c(SCC(=O)Nc2ccc(N3CCOCC3)cc2)nnc1-c1ccncc1 [Compound Z19446050] |
| 0% |  | Cc1nn(Cc2ccccc2)c(Cl)c1C(=O)OCc1nc(N)nc(Nc2ccccc2)n1 [Compound Z89784395] |
| 11% |  | CCn1ncc2c(C(=O)OC)cc(-c3ccccc3)nc21 [Compound Z90171664] |
| -4% |  | Oc1c(Br)cccc1CNCc1ncc(-c2ccccc2)o1 [Compound Z1135283259] |
| -3% |  | Cc1ccc2[nH]c(C)c(CC(=O)Nc3n[nH]c(-c4ccccn4)n3)c2c1 [Compound Z653347886] |
| -3% |  | CN(CC(=O)N1N=C(c2ccco2)CC1c1cccs1)Cc1nc2ccccc2c(=O)[nH]1 (centres unmarked) [Compound Z52671252] |
| -38% |  | CC(NCc1ccc(C(=O)Nc2ccccc2)cc1)c1ccc2c(c1)OCCO2 (centres unmarked) [Compound Z89008298] |
| 26% |  | CC(=O)Nc1ccc(/C=C2/CC(C(C)(C)C)Cc3c2nc2ccccc2c3C(=O)O)cc1 (centres unmarked) [Compound Z46108738] |
| -15% |  | Cc1cc(NCC(O)COc2ccc(F)cc2)nc2ccccc12 (centres unmarked) [Compound Z815806580] |
| -1% |  | NS(=O)(=O)c1ccc(CCNC(=O)CSc2nnc(-c3ccccc3F)n2CCc2ccccc2)cc1 [Compound Z16426742] |
| 6% |  | CCc1nn2c(Nc3ccc(C(N)=O)cc3)cc(C)nc2c1-c1ccc(F)cc1 [Compound Z1179617819] |
| 3% |  | CC(NC(c1ccccc1)c1ccccn1)c1ccncc1 (centres unmarked) [Compound Z335491150] |
| -12% |  | Cl.Fc1c(-c2ccccc2)nc2ccc(Cl)cc2c1-c1ccccc1 [Compound Z223042638] |
| 19% |  | O=C(OCc1nc(-c2cccs2)no1)c1ccc2ccccc2n1 [Compound Z51170832] |
| -9% |  | CN1C/C(=C/c2ccc3c(c2)OCO3)c2nc3ccccc3c(C(=O)O)c2C1 [Compound Z46114673] |
| -2% |  | O=C(O)c1c2c(nc3ccccc13)/C(=C\c1ccc(O)c(Br)c1)CCC2 [Compound Z46036098] |
| 51% | -8% | CCOc1cc(/C=C2/CCCc3c2nc2ccccc2c3C(=O)O)ccc1OC [Compound Z46035916] |
| -4% |  | Cc1cnc(COC(=O)c2cc(-c3ccccn3)ccc2Cl)cn1 [Compound Z1514764424] |
| -9% |  | COc1ccc(-c2cc(C(=O)OCc3ccccn3)c3ccccc3n2)cc1OC [Compound Z30610492] |
| 2% |  | NC(=O)c1cc(NC(=O)c2cccnc2Nc2cccc(F)c2)n[nH]1 [Compound Z1451063255] |
| -11% |  | CC(=O)N1CCc2cc(NC(=O)c3ccccc3SCc3cn4ccccc4n3)ccc21 [Compound Z285525778] |
| -2% |  | Cc1ccc(NC(=O)C(=O)c2c(-c3ccccc3)cc3ccccn23)cc1S(=O)(=O)N1CCOCC1 [Compound Z56835405] |
| 0% |  | O=C(Nc1ccc(F)cc1)c1nnc(CSc2ncc(-c3ccccc3)[nH]2)s1 [Compound Z325218452] |
| 4% |  | CN(C)S(=O)(=O)c1cccc(CS(=O)(=O)c2ccccn2)c1 [Compound Z432528000] |
